Data on 14 compounds can be found in PubChem BioAssay (NCI).

Where “and” joins values, the source holds several entries; their conditions need not be identical. Equal entries are not always repeated.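 Five concentrations, 48 hours, 96-well plates. At the GI50, growth is halved. Definition used: TGI = concentration required for complete inhibition of growth.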 *1 amine or outer side, *2 acyl side, *3 side chain or, on linkers, in order; H or OH if unused. Where a SMILES comes first, the peptide text is derived from it. Bridges are numbered along the chain shown (N, C = ends). [ ]: non-standard residue; d: D form. ξ: configuration not given here. X4 = CCC(C)C(N[*:1])C(O)CC(=O)O[C@H](C(=O)C(C)C(=O)[*:2])C(C)C; NMeY = CN[C@@H](Cc1ccc(O)cc1)C(=O)O; ξNMeL = CNC(CC(C)C)C(=O)O; ξT = CC(O)C(N)C(=O)O

Test systems include COLO 205 colon; DU-145 prostate; HCC-2998 colon; KM12 colon; NCI-H226 lung; NCI-H522 lung; OVCAR-3 ovarian; U251 CNS; A498 renal.
What all share (experiment): DTP human tumour cell line panel, 48 h

The term TGI denotes the concentration at which net growth stops. Higher therefore signals less potent growth arrest. Consider `CCOC(=O)C(Cc1ccccc1)(Cc1ccc(O)cn1)NC(=O)c1ccccc1` (stereo not drawn), for which the TGI in the assay with COLO 205 colon is 68.4 µM; in the assay with DU-145 prostate, above 100 µM; in the assay with HCC-2998 colon, above 100 µM; in the assay on KM12 colon, 54.8 µM; in the assay with NCI-H226 lung it was above 100 µM; in the assay with NCI-H522 lung it was 53.8 µM. Also, the TGI with OVCAR-3 ovarian is 47.8 µM; in the assay on U251 CNS it was 57.7 µM.

Consider `O=C(O)c1ccc(Nc2nc3cc(C(F)(F)F)ccc3nc2C(=O)O)cc1`, for which the total growth inhibition concentration (TGI) in the assay with A498 renal, with COLO 205 colon, in the assay on DU-145 prostate, in the assay with HCC-2998 colon, in the assay on KM12 colon and with NCI-H226 lung was above 100 µM in each case. For the same compound, the total growth inhibition concentration (TGI) in the assay on NCI-H522 lung, with OVCAR-3 ovarian and in the assay with U251 CNS was above 100 µM throughout.

For the compound `CC(C)n1c(=O)n(-c2ccccc2)n(C(C)(C)C)c1=O`, the concentration for total growth inhibition (TGI) in the assay with A498 renal, with COLO 205 colon, with HCC-2998 colon, in the assay with KM12 colon, in the assay with NCI-H226 lung and in the assay with OVCAR-3 ovarian was above 100 µM throughout. The compound further registered a total growth inhibition concentration (TGI) with U251 CNS above 100 µM.

`CN1CC(c2ccccc2)N(CCCCN2CC(c3ccccc3)N(C)CC2c2ccccc2)CC1c1ccccc1` (stereo not drawn): the TGI in the assay with A498 renal, in the assay with COLO 205 colon, in the assay with DU-145 prostate, with HCC-2998 colon, in the assay on KM12 colon and with NCI-H226 lung was above 100 µM in each case. Besides, the total growth inhibition concentration (TGI) in the assay on OVCAR-3 ovarian was above 100 µM.

For `COS(=O)c1cc(Cl)cc(Cl)c1O` (stereo not drawn), the TGI in the assay on A498 renal is above 100 µM; in the assay on HCC-2998 colon, above 100 µM; in the assay on KM12 colon it was above 100 µM; in the assay on NCI-H522 lung it was 36.3 µM; in the assay on OVCAR-3 ovarian, above 100 µM; with U251 CNS, above 100 µM.

Take `CSc1nncc(-c2cc3c(c(SC)n2)CCC3)n1`: the total growth inhibition concentration (TGI) with COLO 205 colon, in the assay on DU-145 prostate, in the assay on KM12 colon, with NCI-H226 lung, in the assay with NCI-H522 lung and with OVCAR-3 ovarian was above 100 µM in each case. The same compound had a concentration for total growth inhibition (TGI) with U251 CNS above 100 µM.

For the compound `NC(=O)CC(Nc1ncc2c(n1)-c1ccccc1OC2)C(=O)O` (stereo not drawn), the concentration for total growth inhibition (TGI) in the assay on COLO 205 colon, with DU-145 prostate, with KM12 colon, in the assay with NCI-H226 lung, in the assay with NCI-H522 lung and with OVCAR-3 ovarian was above 100 µM in each case. This compound also returned a TGI in the assay on U251 CNS above 100 µM.

Turning to `CCC(C)C1NC(=O)C(NC(=O)C(CC(C)C)N(C)C(=O)[C@@H]2CCCN2)C(C)OC(=O)[C@H](Cc2ccc(OC)cc2)N(C)C(=O)[C@@H]2CCCN2C(=O)[C@H](CC(C)C)NC(=O)C(C)C(=O)[C@H](C(C)C)OC(=O)CC1O` (stereo partly drawn) (H-P[ξNMeL][ξT][X4]LP[NMeY](Me); ester 3-C), the total growth inhibition concentration (TGI) was 0.0372 µM and 0.15 µM with A498 renal; 0.0104 µM and 0.0108 µM with HCC-2998 colon; 0.00653 µM with NCI-H522 lung; 0.00686 µM with OVCAR-3 ovarian; 0.0114 µM in the assay on U251 CNS.

Regarding `COc1cc(C2C3=C(COC3=O)OC(C)(C)Oc3cc4c(cc32)OCO4)cc(OC)c1OC` (stereo not drawn), the TGI in the assay on A498 renal was 1.49 µM; in the assay with COLO 205 colon, 0.552 µM; in the assay on HCC-2998 colon it was above 100 µM; in the assay on KM12 colon, 14.8 µM; in the assay with NCI-H226 lung, above 100 µM; in the assay on NCI-H522 lung, 30.1 µM. The compound further displayed a TGI in the assay with U251 CNS above 100 µM.

Usually GI50 stands for the concentration that inhibits growth by half. With `CC1=CC[C@@H]2CC[C@]3(C)[C@H](CC[C@@H]4[C@@]5(C)CCCNC(C)(C)[C@@H]5CC[C@]43C)[C@H]2[C@@H]1C`, the GI50 is 1.87 µM in the assay on A498 renal, 1.98 µM in the assay with DU-145 prostate and 1.91 µM in the assay with OVCAR-3 ovarian. Besides, the total growth inhibition concentration (TGI) is 3.6 µM in the assay with A498 renal, 3.55 µM in the assay with DU-145 prostate and 3.37 µM with OVCAR-3 ovarian.

Turning to `COc1c/c(=C2/C=c3ccccc3=N2)[nH]/c1=C/c1[nH]c(C)cc1C`, the GI50 with A498 renal was 0.267 µM; with COLO 205 colon, 0.0659 µM; with DU-145 prostate it was 0.15 µM; in the assay on OVCAR-3 ovarian, 0.046 µM; in the assay on U251 CNS it was 0.0454 µM. Moreover, the total growth inhibition concentration (TGI) in the assay on A498 renal was 4.31 µM; in the assay with COLO 205 colon, 1.26 µM; in the assay on DU-145 prostate, above 100 µM; in the assay on OVCAR-3 ovarian, 1.02 µM; in the assay on U251 CNS it was 1.52 µM.

For the compound `COc1ccc(-c2c(C#N)c(-c3ccccc3)n(NS(=O)(=O)c3ccccc3)c(=O)c2C#N)cc1`, the total growth inhibition concentration (TGI) in the assay on A498 renal was above 100 µM; in the assay with COLO 205 colon, above 100 µM; in the assay on HCC-2998 colon it was above 100 µM; in the assay on KM12 colon it was above 100 µM; in the assay with NCI-H226 lung, above 100 µM; in the assay on NCI-H522 lung, 73.7 µM. The total growth inhibition concentration (TGI) with U251 CNS was above 100 µM.

Regarding `CC[N+](CC)=c1ccc2nc3c(cc(N)c4ccccc43)oc-2c1`, in the assay with HCC-2998 colon, the GI50 was 0.257 µM and the TGI turned out to be 0.661 µM. Further, in the assay with KM12 colon, the GI50 is 0.247 µM and the total growth inhibition concentration (TGI) was determined as 0.666 µM.

Turning to `NC(=O)COc1ccccc1`, the TGI with A498 renal, with COLO 205 colon, with HCC-2998 colon, in the assay with KM12 colon, in the assay with NCI-H226 lung and with NCI-H522 lung was above 100 µM each time. The TGI in the assay on OVCAR-3 ovarian and with U251 CNS was above 100 µM in each case.
